This passage reports AC50 results from ChEMBL document CHEMBL5291721, “A preclinical secondary pharmacology resource illuminates target-adverse drug reaction associations of marketed drugs” (Nat Commun, 2023).

Test [1] has as its target T1, Alpha-1A adrenergic receptor (Homo sapiens, UniProt P35348).
T1 sequence (P35348 whole entry): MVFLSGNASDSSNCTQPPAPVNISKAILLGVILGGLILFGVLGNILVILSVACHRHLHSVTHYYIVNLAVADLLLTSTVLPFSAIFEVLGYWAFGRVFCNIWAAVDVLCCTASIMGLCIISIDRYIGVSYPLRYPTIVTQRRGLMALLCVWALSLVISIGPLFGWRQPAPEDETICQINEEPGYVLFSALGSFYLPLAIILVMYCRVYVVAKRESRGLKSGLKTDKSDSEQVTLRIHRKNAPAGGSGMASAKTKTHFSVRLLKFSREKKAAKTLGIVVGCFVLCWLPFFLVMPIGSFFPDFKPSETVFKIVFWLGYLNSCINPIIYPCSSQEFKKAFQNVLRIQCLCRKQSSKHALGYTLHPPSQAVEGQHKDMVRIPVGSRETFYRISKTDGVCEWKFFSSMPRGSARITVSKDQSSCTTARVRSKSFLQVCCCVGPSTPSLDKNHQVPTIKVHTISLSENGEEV
It is filed as functional, cell-based.

The target of test [2] is T2, Alpha-2B adrenergic receptor (Homo sapiens, UniProt P18089).
T2 sequence (P18089 whole entry): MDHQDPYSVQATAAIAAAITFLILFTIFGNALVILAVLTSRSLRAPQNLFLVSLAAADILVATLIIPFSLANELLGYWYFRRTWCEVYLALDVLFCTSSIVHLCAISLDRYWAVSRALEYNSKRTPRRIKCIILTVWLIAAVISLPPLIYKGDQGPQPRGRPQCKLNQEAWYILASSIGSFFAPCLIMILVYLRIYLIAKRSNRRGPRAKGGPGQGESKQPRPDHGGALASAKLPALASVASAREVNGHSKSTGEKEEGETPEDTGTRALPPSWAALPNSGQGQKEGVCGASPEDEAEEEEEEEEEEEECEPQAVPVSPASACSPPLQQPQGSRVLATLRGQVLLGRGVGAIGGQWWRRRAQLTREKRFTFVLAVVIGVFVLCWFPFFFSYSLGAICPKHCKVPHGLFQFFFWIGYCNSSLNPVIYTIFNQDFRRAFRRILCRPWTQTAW

Test [3] concerns the target Gamma-aminobutyric acid receptor subunit alpha-1 (Rattus norvegicus, UniProt P62813). It is filed as functional.
For test [4], the target named is Glutamate receptor ionotropic, NMDA 1 (Rattus norvegicus, UniProt P35439).
The target of test [5] is Histamine H1 receptor (Homo sapiens, UniProt P35367).
Sequence of Histamine H1 receptor (P35367 whole entry): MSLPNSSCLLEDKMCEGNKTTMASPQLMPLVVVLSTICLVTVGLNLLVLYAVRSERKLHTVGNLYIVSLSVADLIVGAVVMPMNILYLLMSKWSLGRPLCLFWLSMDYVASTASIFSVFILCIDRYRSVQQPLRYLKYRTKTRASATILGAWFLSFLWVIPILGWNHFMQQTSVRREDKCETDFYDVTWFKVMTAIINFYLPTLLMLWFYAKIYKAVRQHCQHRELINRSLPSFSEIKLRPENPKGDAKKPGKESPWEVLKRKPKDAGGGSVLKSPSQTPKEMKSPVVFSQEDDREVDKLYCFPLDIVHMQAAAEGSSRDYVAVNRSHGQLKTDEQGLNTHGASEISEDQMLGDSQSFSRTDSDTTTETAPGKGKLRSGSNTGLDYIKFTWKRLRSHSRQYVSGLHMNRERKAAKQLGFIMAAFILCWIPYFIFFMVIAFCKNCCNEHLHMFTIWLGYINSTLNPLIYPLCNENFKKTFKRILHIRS
Test [6] concerns the target T3, 5-hydroxytryptamine receptor 1A (Homo sapiens, UniProt P08908).
T3 sequence (P08908 whole entry): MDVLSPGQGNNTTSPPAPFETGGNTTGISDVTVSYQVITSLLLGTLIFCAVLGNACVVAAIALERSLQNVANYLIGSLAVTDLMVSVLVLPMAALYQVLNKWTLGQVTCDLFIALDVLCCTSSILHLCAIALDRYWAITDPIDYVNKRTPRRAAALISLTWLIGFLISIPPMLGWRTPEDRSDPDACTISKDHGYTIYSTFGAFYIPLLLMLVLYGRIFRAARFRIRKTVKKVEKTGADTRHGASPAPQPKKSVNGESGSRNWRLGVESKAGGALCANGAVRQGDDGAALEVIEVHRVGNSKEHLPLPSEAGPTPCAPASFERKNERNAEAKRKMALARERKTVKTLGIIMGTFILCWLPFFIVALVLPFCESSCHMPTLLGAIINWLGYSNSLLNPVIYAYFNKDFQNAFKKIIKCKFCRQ
It is filed as functional, cell-based.

The target of test [7] is T4, 5-hydroxytryptamine receptor 2C (Homo sapiens, UniProt P28335).
T4 sequence (P28335 whole entry): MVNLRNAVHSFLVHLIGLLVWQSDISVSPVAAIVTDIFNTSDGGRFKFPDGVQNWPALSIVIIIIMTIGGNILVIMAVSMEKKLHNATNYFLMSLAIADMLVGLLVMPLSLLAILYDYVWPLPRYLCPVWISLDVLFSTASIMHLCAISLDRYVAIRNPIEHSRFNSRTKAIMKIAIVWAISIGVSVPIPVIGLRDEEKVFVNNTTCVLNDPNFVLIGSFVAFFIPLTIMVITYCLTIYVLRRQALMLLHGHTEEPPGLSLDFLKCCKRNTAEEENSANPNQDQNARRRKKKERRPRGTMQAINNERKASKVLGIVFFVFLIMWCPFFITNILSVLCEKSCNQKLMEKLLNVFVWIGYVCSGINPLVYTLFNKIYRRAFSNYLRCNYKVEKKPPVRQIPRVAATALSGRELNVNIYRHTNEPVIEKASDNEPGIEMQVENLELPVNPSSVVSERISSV

The target of test [8] is Melanocortin receptor 3 (Homo sapiens, UniProt P41968).
Sequence of Melanocortin receptor 3 (P41968 whole entry): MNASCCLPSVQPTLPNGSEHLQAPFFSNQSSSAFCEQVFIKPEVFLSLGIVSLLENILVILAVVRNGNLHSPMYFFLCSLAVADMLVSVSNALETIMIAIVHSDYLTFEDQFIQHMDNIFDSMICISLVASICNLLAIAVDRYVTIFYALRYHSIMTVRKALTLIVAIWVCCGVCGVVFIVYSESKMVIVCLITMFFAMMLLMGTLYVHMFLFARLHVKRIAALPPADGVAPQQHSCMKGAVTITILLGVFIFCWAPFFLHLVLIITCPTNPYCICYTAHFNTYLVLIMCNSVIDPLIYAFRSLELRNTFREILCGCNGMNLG
Test [9] concerns the target Motilin receptor (Homo sapiens, UniProt O43193).
Test [10] concerns the target Kappa-type opioid receptor (Homo sapiens, UniProt P41145).
Test [11] concerns the target T5, Equilibrative nucleoside transporter 1 (Homo sapiens, UniProt Q99808).
T5 sequence (Q99808 whole entry): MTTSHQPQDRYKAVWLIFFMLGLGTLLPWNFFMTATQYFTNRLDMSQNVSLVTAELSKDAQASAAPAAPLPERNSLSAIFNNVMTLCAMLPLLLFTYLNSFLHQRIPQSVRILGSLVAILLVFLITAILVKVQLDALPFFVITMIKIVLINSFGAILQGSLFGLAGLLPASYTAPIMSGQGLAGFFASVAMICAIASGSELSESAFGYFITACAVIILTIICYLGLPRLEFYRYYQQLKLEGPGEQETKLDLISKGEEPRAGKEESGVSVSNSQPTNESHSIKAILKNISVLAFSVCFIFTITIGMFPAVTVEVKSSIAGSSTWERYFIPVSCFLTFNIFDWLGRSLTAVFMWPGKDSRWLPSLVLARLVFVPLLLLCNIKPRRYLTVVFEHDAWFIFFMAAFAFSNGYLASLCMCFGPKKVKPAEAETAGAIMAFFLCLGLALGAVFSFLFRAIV

For test [12], the target named is Sodium-dependent serotonin transporter (Homo sapiens, UniProt P31645).
Sequence of Sodium-dependent serotonin transporter (P31645 whole entry): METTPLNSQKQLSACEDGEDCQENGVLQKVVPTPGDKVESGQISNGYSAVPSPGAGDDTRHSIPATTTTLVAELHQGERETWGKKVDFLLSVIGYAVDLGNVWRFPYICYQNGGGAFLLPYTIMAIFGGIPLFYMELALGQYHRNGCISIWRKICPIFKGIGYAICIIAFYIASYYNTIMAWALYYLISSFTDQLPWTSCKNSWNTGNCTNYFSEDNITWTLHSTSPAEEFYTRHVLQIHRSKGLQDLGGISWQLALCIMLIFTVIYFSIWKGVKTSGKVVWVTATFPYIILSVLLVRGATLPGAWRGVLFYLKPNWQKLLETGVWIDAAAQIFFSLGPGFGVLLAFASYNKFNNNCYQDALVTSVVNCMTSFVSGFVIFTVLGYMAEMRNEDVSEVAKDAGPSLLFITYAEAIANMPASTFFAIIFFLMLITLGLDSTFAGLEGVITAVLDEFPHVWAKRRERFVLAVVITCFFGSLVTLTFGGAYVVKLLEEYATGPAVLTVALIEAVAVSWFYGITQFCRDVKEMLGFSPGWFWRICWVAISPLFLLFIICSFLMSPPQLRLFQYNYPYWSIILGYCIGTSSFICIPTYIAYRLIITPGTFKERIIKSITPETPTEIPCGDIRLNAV
For test [13], the target named is cGMP-inhibited 3',5'-cyclic phosphodiesterase 3A (Homo sapiens, UniProt Q14432). It is filed as functional.
Sequence of cGMP-inhibited 3',5'-cyclic phosphodiesterase 3A (Q14432 whole entry): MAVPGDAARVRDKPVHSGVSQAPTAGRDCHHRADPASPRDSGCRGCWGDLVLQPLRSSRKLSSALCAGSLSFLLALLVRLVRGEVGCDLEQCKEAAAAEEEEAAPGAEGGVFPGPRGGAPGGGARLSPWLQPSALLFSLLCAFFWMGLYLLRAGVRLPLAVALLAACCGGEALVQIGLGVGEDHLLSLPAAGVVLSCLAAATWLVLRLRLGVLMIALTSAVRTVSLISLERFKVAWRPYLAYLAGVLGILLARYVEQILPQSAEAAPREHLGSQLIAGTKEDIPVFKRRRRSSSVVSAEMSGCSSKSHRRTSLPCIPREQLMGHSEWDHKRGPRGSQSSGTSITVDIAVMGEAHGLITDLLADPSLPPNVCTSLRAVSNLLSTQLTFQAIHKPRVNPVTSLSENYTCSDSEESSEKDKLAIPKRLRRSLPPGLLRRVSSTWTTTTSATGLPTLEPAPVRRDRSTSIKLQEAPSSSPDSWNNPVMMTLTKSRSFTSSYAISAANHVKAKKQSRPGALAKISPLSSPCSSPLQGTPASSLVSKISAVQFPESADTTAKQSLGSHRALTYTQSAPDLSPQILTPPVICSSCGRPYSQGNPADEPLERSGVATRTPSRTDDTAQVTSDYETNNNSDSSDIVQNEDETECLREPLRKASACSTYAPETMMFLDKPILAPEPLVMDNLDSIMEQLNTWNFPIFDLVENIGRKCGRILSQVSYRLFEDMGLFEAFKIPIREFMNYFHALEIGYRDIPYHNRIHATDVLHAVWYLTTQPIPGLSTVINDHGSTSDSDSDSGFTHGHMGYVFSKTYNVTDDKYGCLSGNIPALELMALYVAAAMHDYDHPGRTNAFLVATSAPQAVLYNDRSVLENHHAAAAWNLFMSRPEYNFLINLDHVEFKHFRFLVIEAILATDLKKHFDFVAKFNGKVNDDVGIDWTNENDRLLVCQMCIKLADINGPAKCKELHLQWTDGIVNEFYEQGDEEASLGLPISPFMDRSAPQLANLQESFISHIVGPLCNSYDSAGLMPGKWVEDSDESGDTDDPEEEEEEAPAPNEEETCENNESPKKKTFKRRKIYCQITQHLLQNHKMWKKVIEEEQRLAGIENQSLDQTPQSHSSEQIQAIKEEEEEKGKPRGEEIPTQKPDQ

Some results are limits rather than exact numbers.
Note: assay procedure not described here.

Sequence of Motilin receptor (O43193 whole entry): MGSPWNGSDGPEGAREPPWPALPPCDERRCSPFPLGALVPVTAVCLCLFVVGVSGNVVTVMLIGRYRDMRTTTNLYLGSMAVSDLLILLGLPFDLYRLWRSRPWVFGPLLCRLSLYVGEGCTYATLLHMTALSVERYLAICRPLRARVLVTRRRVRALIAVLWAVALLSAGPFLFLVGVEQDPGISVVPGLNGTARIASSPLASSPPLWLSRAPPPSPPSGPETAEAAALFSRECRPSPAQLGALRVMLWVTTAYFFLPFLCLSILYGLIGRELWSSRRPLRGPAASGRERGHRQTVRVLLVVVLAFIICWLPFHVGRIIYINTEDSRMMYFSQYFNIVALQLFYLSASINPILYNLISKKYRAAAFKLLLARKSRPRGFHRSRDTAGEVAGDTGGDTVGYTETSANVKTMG
Sequence of Gamma-aminobutyric acid receptor subunit alpha-1 (P62813 whole entry): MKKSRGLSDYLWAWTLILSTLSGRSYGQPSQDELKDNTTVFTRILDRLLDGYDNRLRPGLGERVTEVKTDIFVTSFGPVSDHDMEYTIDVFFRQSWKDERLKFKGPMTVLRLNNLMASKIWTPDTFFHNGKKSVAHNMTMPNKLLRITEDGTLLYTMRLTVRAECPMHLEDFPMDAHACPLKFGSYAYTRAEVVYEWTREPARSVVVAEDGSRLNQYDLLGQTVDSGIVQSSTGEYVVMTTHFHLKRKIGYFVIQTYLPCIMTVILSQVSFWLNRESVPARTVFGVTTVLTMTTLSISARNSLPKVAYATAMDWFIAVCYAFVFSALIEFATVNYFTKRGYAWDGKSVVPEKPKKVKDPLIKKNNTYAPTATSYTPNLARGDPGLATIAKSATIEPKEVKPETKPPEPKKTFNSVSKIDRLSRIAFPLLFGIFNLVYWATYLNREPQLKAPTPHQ
Sequence of Kappa-type opioid receptor (P41145 whole entry): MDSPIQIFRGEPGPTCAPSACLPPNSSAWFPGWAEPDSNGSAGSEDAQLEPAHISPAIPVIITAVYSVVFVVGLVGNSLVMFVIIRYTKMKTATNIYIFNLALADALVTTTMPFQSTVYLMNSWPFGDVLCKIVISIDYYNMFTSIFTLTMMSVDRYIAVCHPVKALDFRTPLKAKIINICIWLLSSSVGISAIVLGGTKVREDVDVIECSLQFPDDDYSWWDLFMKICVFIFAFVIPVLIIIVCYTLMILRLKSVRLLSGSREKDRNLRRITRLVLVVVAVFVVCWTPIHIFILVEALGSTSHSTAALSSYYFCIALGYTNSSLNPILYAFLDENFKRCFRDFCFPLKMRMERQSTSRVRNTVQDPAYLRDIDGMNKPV

Regarding `O=C(NCCNCC(O)COc1ccc(O)cc1)N1CCOCC1` (stereo not given) [XAMOTEROL], the AC50 in [1], in [2], in test [3], in test [4], in test [5] and in test [6] was above 30 µM throughout. The AC50 in test [7], in test [8], in test [9], in [10], in test [11] and in test [12] was above 30 µM throughout. Also, in test [13], the AC50 (in general, the concentration at which the activity in the assay is half-maximal) was above 30 µM.

In the case of `COc1ccc(-c2ccc3cc(C(=O)O)ccc3c2)cc1C12CC3CC(CC(C3)C1)C2`, the AC50 in test [1], in test [2], in test [3], in test [4], in [5] and in test [6] was above 30 µM in each case. Further, the AC50 in [7], in test [8], in test [9], in test [10], in test [11] and in test [12] was above 30 µM in each case. The AC50 in test [13] was above 30 µM.

Take `O=C(O)CCCCCCNC1c2ccccc2CCc2ccccc21` [AMINEPTINE]: the AC50 in [1], in test [2], in test [3], in test [4], in test [5] and in test [6] was above 30 µM each time. Besides, the AC50 in [7] was 0.17 µM; in [8], above 30 µM; in [9], above 30 µM; in test [10] it was above 30 µM; in [11] it was above 30 µM; in test [12], above 30 µM. In test [13], the AC50 is above 30 µM.

Take `CN1C(=O)C(O)N=C(c2ccccc2Cl)c2cc(Cl)ccc21` (stereo not given) [LORMETAZEPAM]: the AC50 in test [1] is above 30 µM; in [2] it was above 30 µM; in test [3], 0.0014 µM; in test [4] it was above 30 µM; in [5] it was above 30 µM; in test [6], above 30 µM. Also, the AC50 is above 30 µM in [7]; above 30 µM in test [8]; above 30 µM in test [9]; 8.1 µM in test [10]; above 30 µM in [11]; above 30 µM in [12]. Besides, in [13], the AC50 is above 10 µM.

Turning to `CCN1CCN(C(=O)N[C@@H](C(=O)N[C@@H]2C(=O)N3C(C(=O)O)=C(CSc4nnnn4C)CS[C@H]23)c2ccc(O)cc2)C(=O)C1=O` [CEFOPERAZONE], the half-maximal activity concentration (AC50) in test [1], in test [2], in [3], in test [4], in test [5] and in test [6] was above 30 µM in each case. The AC50 is above 30 µM in test [7]; above 30 µM in test [8]; above 30 µM in [9]; above 10 µM in test [10]; above 30 µM in test [11]; above 30 µM in test [12]. This compound also displayed a concentration at half-maximal activity (AC50) in test [13] of 9.5 µM.

As for `C=CCN1CCCC1CNC(=O)c1cc(S(N)(=O)=O)cc(OC)c1OC` (stereo not given) [VERALIPRIDE], the half-maximal activity concentration (AC50) is above 30 µM in test [1]; 3.2 µM in test [2]; above 30 µM in test [3]; above 30 µM in test [4]; above 30 µM in test [5]; 3.6 µM in test [6]. For the same compound, the AC50 in test [7] was above 30 µM; in [8], above 30 µM; in [9], above 30 µM; in [10], above 30 µM; in test [11] it was above 30 µM; in test [12], 25 µM. The compound further returned an AC50 in test [13] above 10 µM.

On to `CC(C)OC(=O)CCC/C=C\C[C@@H]1[C@@H](CC[C@@H](O)CCc2ccccc2)[C@H](O)C[C@@H]1O` [LATANOPROST], for which the AC50 in test [1], in [2], in test [3], in test [4], in [5] and in test [6] was above 30 µM in each case. Moreover, the AC50 in test [7], in [8], in test [9], in test [10], in test [11] and in [12] was above 30 µM in each case. Also, the concentration at half-maximal activity (AC50) in test [13] was above 30 µM.

For the compound `Nc1nc(/C(=C/CC(=O)O)C(=O)N[C@@H]2C(=O)N3C(C(=O)O)=CCS[C@H]23)cs1` [CEFTIBUTEN], the AC50 in [1], in [2], in test [3], in test [4], in [5] and in [6] was above 30 µM each time. In addition, the AC50 in test [7], in test [8], in test [9], in [10], in test [11] and in [12] was above 30 µM in each case. Moreover, the concentration at half-maximal activity (AC50) in test [13] was above 30 µM.

`CCCCc1ncc(/C=C(\Cc2cccs2)C(=O)O)n1Cc1ccc(C(=O)O)cc1` [EPROSARTAN]: the AC50 in test [1] was above 30 µM; in test [2], above 10 µM; in test [3], above 10 µM; in test [4], above 10 µM; in test [5], above 10 µM; in test [6] it was above 10 µM. Further, the AC50 was above 10 µM in test [7]; above 10 µM in test [8]; above 10 µM in test [9]; above 10 µM in [10]; above 10 µM in test [11]; above 30 µM in test [12]. The AC50 in [13] is above 10 µM.

Regarding `C=CCC1(CC(C)C)C(=O)NC(=O)NC1=O` [BUTALBITAL], the AC50 in test [1] is above 30 µM; in test [2], above 30 µM; in [3], above 10 µM; in [4], above 10 µM; in [5], above 30 µM; in test [6], above 10 µM. The AC50 in [7] was above 30 µM; in [8], above 10 µM; in [9] it was above 10 µM; in test [10], above 10 µM; in [11] it was above 10 µM; in [12] it was above 10 µM. The AC50 in test [13] is above 30 µM.
